# Measured values from patent US7208517B1, “Endothelin antagonists” (Abbott Labortories, priority 1994, dated 2007).
# Like-named read-outs stand apart in the source and are kept apart here.
# Key:
# ETA Receptor = molecular target: T1, ETA Receptor (Rattus norvegicus, UniProt P26684); assay: [125I]ET-1 binding to membranes from MMQ cells (ETA receptor binding assay, Table 4); details: test compound at 1 μM, 0.1 nM [125I]ET-1, MMQ cell membranes, 4 hours at 25° C.
# T1 construct: endogenous in cells; host or cells: MMQ rat pituitary cells (membranes)
# T1 sequence (P26684 21-426): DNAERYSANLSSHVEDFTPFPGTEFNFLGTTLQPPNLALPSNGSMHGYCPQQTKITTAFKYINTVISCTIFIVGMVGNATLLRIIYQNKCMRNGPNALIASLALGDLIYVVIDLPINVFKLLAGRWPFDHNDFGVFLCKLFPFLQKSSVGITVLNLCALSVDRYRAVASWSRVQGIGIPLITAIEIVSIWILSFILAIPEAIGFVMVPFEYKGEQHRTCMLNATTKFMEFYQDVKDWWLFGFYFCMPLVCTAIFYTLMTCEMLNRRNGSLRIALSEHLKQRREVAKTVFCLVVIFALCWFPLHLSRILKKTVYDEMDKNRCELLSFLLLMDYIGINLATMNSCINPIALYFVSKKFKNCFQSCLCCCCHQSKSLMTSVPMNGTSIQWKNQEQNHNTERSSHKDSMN
# [1] = Determination of plasma protein binding (ultrafiltration, HPLC); type: in vitro ADME; design: fraction unbound at 1 h: dose or concentration left out as unconfirmed; details: fresh plasma, 1 hour at room temperature
# Description: A stock solution of the test compound in 50% ethanol (2 mg/mL) was diluted 10× into PBS. A 0.4 mL sample of this secondary stock solution was added to 3.6 mL of fresh plasma, and incubated at room temperature for 1 hour. A 1 mL sample of this incubation mixture was transferred to a Centrifree ultrafiltration tube. The sample was centrifuged in a fixed-bucket rotor for approximately 2 min and the filtrate was discarded. The sample was centrifuged for another 15–30 min. A 100 μL sample of the ultrafiltrate was transfered to a micro HPLC sample vial containing […] of HPLC mobile phase and mixed thoroughly. A 50 μL sample was injected and the concentration of drug in the ultrafiltrate was determined by HPLC analysis compared against a standard sample prepared identically in the absence of plasma. Ultrafiltrate concentrations are calculated from a calibration curve. Protein binding is calculated according to the equation: % PB=[1−(Cu/Ci)]*100%
# where Cu is the ultrafiltrate concentration and Ci is the initial plasma concentration.
# [2] = molecular target: T2, ETA receptor in MMQ cells (rET-A) (Rattus norvegicus, UniProt P26684); assay: ETA/ETB selectivity: (125I)ET-1 competition binding, ETA assay in MMQ cell membranes (rET-A); details: MMQ cell membranes; for IC50: 0.1 nM (125I)ET-1, read-out: rET-A IC50
# T2 construct: endogenous in cells; host or cells: MMQ rat pituitary cells (membranes)
# T2 sequence (P26684 21-426): T1 sequence (P26684 21-426)
# Description: (§1) The mixture was centrifuged at 1000×g for 10 min. The supernatant was collected and centrifuged at 60,000×g for 60 min. The precipitate was resuspended in 20 mM Tris, pH 7.4 containing protease inhibitor and centrifuged again. The final membrane pellet was resuspended in 20 mM Tris, pH 7.4 containing protease inhibitors and stored at −80° C. until used. Protein content was determined by the Bio-Rad dye-binding protein assay.
# (§2) Binding assays were performed in 96-well microtiter plates pretreated with 0.1% BSA. […] After incubation, unbound ligands were separated from bound ligands by a vacuum filtration method using glass-fiber filter strips in PHD cell harvesters (Cambridge Technology, Inc., MA), washing the filter strips three times with saline (1 mL). Nonspecific binding was determined in the presence of 1 μM ET-1. IC50 values are calculated using an average of at least two separate determinations.
# [3] = molecular target: T3, ETB receptors of porcine cerebellar tissues (pET-B) (Sus scrofa, UniProt P35463); assay: ETA/ETB selectivity: (125I)ET-3 competition binding, ETB assay in porcine cerebellum membranes (pET-B); details: porcine cerebellum membranes; 0.1 nM (125I)ET-3; read-out: pET-B IC50
# T3 construct: porcine cerebellar tissues (known to contain ETB receptors); from tissue; host or cells: porcine cerebellum (membranes)
# T3 sequence (P35463 27-443): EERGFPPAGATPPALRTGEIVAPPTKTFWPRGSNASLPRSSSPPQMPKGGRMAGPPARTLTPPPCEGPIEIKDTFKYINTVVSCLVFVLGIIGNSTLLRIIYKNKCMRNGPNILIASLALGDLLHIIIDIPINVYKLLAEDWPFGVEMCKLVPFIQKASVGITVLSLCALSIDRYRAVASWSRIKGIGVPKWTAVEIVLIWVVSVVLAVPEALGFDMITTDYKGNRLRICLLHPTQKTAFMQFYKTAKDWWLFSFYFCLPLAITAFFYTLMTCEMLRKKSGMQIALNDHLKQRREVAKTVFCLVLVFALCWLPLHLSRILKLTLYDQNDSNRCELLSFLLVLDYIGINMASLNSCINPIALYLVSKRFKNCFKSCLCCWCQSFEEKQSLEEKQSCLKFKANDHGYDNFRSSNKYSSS
# [4] = tested on: ET-1-induced phosphatidylinositol hydrolysis in MMQ cells; assay: Determination of ET-1-induced phosphatidylinositol (PI) hydrolysis in MMQ cells; type: cell-based, rat; details: 1 nM ET-1 challenge, read-out: IC50 (inhibition of ET-induced increase in PI turnover)
# Description: MMQ cells (0.4×10^6 cells/mL) were labeled with 10 μCi/mL of [^3H]myo-inositol in RPMI for 16 hours. The cells were washed with PBS, then incubated with Buffer A containing protease inhibitors and 10 mM LiCl for 60 minutes. The cells were then incubated with test compounds for 5 minutes, and then challenged with 1 nM ET-1. ET-1 challenge was terminated by the addition of 1.5 mL of 1:2 (v/v) chloroform-methanol. Total inositol phosphates were extracted after adding chloroform and water to give final proportions of 1:1:0.9 (v/v/v) chloroform-methanol-water as described by Berridge (Biochem. J. 206 587–595 (1982)). The upper aqueous phase (1 mL) was retained and a small portion (100 μL) was counted. The rest of the aqueous sample was analyzed by batch chromatography using anion-exchange resin AG1-X8 (Bio-Rad). […] The results of the above study clearly indicate that the compounds act as functional ET antagonists.
# [5] = pH-solubility profile: maximum solubility in aqueous media at varying pH; type: physicochemical
# From the text: Such increased aqueous solubility, coupled with the enhanced potency resulting from decreased protein binding, might make such compounds preferred for development as parenteral agents.
# human ETA receptor [6] = molecular target: T4, human ETA receptor (Homo sapiens, UniProt P25101); assay: Albumin-induced binding shift study: [125I]ET-1 binding in presence of human serum albumin; details: 0%, 0.2%, 1% or 5% HSA
# T4 construct: expressed in transfected cells; host or cells: CHO cells, permanently transfected
# T4 sequence (P25101 21-427): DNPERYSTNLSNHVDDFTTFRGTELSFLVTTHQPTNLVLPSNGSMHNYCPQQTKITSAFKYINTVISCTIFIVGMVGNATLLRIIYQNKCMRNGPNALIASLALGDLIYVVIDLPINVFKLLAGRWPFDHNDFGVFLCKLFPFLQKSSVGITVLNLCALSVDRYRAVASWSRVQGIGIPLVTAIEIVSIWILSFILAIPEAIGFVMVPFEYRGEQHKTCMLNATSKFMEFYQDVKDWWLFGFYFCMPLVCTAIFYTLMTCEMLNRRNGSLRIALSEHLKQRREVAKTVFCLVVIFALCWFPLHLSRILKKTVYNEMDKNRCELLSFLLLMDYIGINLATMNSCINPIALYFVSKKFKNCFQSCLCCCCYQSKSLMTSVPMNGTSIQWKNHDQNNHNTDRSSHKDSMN
# Description: Protocol for Albumin-induced binding shift studies: Binding assays were performed in 96-well microtiter plates precoated with 0.1% BSA unless otherwise indicated. Membranes were diluted in Buffer B (20 mM Tris, 100 mM NaCl, 10 mM MgCl2, pH 7.4, 0.1 mM PMSF, […] Pepstatin A, 0.025% bacitracin and 3 mM EDTA) to a final concentration of 0.05 mg/ml of protein. Varying concentrations of human serum albumin (HSA) were added as indicated. In competition studies, membranes were incubated with 0.1 nM of [^125I]ET in Buffer B (final volume: 0.2 ml) in the presence of increasing concentrations of unlabeled test ligands for 4 hours at 25° C. After incubation, unbound ligands were separated from bound ligands by vacuum filtration using glass-fiber filter strips in PHD cell harvesters (Cambridge Technology, Inc., Watertown, MA), followed by washing the filter strips with saline (1 ml) for three times. Nonspecific binding was determined in the presence of 1 μM ET-1. Inhibition of [^125]ET-1 binding to human ETA receptor by ETA antagonists. Each curve was determined in the presence of either 0%, 0.2%, 1%, or 5% HSA, and assays were performed as described above. The results are expressed as % of control binding, with [^125I]ET-1 binding in the absence of antagonist defining 100%. Each point represents the mean (±S.D.) of three determinations.
# MAP = details: sodium-depleted squirrel monkeys; dosed orally; cited from earlier work
# [7] = tested on: post-ischaemic renal vasoconstriction; details: rats; cited from earlier work
# [8] = tested on: decrease in cerebral blood flow due to subarachnoid hemorrhage (SAH); details: rats; cited from earlier work
# human ETA receptor [9] = molecular target: T4, human ETA receptor; assay: ETA/ETB selectivity: (125I)ET-1 competition binding, CHO cells transfected with human ETA receptor (hET-A)
# Description: as §1, §2
# human ETB receptor = molecular target: T5, human ETB receptor (Homo sapiens, UniProt P24530); assay: ETA/ETB selectivity: (125I)ET-3 competition binding, CHO cells transfected with human ETB receptor (hET-B)
# T5 construct: expressed in transfected cells; host or cells: CHO cells, permanently transfected
# T5 sequence (P24530 27-442): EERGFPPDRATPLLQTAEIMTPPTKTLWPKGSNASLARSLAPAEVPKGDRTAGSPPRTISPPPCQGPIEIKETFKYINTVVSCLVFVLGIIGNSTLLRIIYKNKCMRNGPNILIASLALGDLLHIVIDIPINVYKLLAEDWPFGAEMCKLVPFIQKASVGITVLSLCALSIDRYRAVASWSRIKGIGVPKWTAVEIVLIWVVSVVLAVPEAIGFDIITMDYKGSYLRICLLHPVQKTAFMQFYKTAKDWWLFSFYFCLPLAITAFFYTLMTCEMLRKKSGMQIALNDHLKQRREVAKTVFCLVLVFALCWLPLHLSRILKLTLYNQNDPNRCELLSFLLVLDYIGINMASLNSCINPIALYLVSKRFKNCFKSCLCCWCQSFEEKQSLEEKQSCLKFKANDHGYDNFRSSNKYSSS
# Description: MMQ cells, porcine cerebellar tissues (known to contain ETB receptors) and chinese hamster ovary cells (CHO) permanently transfected with the human ETA or ETB receptor were homogenized in 25 ml of 10 mM Hepes (pH 7.4) containing 0.25 M sucrose and a protease inhibitor [50 mM EDTA, 0.1 mM PMSF, 5 μg/ml Pepstatin A, and 0.025% Bacitracin] using a micro ultrasonic cell disrupter. The mixture was centrifuged at 1000×g for 10 min. The supernatant was collected and centrifuged at 60,000×g for 60 min. The precipitate was resuspended in 20 mM Tris, pH 7.4 containing protease inhibitor and centrifuged again. The final membrane pellet was resuspended in 20 mM Tris, pH 7.4 containing protease inhibitors and stored at −80° C. until used. Protein content was determined by the Bio-Rad dye-binding protein assay.
# Binding assays were performed in 96-well microtiter plates pretreated with 0.1% BSA. Membranes prepared from cells were diluted 100 fold in Buffer B (20 mM Tris, 100 mM NaCl, 10 mM MgCl2, pH 7.4, with 0.2% BSA, 0.1 mM PMSF, 5 μg/mL Pepstatin A, 0.025% bacitracin, and 50 mM EDTA) to a final concentration of 0.2 mg/mL of protein. In competition binding studies, membranes (0.02 mg) were incubated with 0.1 nM of (^125I)ET-1 (for ETA assay in MMQ or CHO cells transfected with human ETA receptor) or (^125I)ET-3 (for ETB assay in porcine cerebellum or CHO cells transfected with human ETB receptor) in Buffer B (final volume: 0.2 mL) in the presence of increasing concentrations of the test compound for 3 hours at 25° C. After incubation, unbound ligands were separated from bound ligands by a vacuum filtration method using glass-fiber filter strips in PHD cell harvesters (Cambridge Technology, Inc., MA), washing the filter strips three times with saline (1 mL). Nonspecific binding was determined in the presence of 1 μM ET-1. IC50 values are calculated using an average of at least two separate determinations.
structure (smiles),measurement,setting,value
CCCCN(C(=O)CN1CC(c2ccc3c(c2)OCO3)C(C(=O)O)C1c1ccc(OC)cc1)c1cccc(CN)c1 (stereo not shown) [compound 532],inhibition at 1 µM,ETA Receptor; read-out: % Inhibition of ETA at 1 μM,100%
same,fraction unbound at 1 h,"[1]; read-out: percent of bound compound (plasma protein binding, % PB) (converted)",0.032
same,IC50,[2],5.1 nM
same,IC50,[3],3200 nM
"CCCCN(CCCC)C(=O)CN1C[C@H](c2ccc3c(c2)OCO3)[C@@H](C(=O)O)[C@@H]1c1ccc(OC)cc1 (relative stereo) [Example 43, trans,trans-2-(4-Methoxyphenyl)-4-(1,3-benzodioxol-5-yl)-1-(N,N-di(n-butyl)aminocarbonylmethyl)-pyrrolidine-3-carboxylic acid]",% Inhibition of ETA at 1 μM,ETA Receptor,99.2%
same,"percent of bound compound (plasma protein binding, % PB)",[1],> 98%
same,"percent of bound compound (plasma protein binding, % PB)",[1]; listed as Example #43,>99.5%
same,IC50,[4],0.1 nM
same,maximum solubility,"[5]; pH 5.1, about 25° C.",80 µg/mL
same,maximum solubility,"[5]; pH 6.5, about 25° C.",510 µg/mL
same,maximum solubility,"[5]; pH 7.1, about 25° C.",990 µg/mL
same,maximum solubility,"[5]; pH 7.6, about 25° C.",1140 µg/mL
same,shift of the binding curve in the presence of increasing albumin levels,human ETA receptor [6],rightward shift of the binding curve (toward decreasing potency)
COc1cccc(Oc2c(NS(=O)(=O)c3ccc(C(C)(C)C)cc3)ncnc2OCCO)c1 [Ro 46–2005],MAP,MAP,decreases MAP
same,post-ischaemic renal vasoconstriction,[7],prevents post-ischaemic renal vasoconstriction
same,decrease in cerebral blood flow due to subarachnoid hemorrhage (SAH),[8],prevents the decrease in cerebral blood flow due to subarachnoid hemorrhage (SAH)
CC=CC(C)(C)CC1C(C(=O)O)C(c2cc(OC)c3c(c2)OCO3)CN1CC(=O)N(CCCC)CCCC (stereo not shown) [Example 553],IC50,human ETA receptor [9],0.29 nM
same,inhibition at 1 µM,[2]; 1 μM test compound,100%
same,IC50,[2],0.26 nM
same,IC50,human ETB receptor,39500 nM
same,IC50,[4]; Rattus norvegicus,0.4 nM
same,IC50,[3],42400 nM
